Test results reported in US20040152631A1, “Methods for manipulating ejaculatory reflex and sensation of ejaculation and for treating sexual dysfunction” (priority 2002, published 2004).
Where “and” joins values, the source holds several entries; their conditions need not be identical. Equal values may be shown once.

Experiments:
LSt neurons [1] = assay: Fos-IR in galanin-IR LSt neurons after 8-OH-DPAT; type: in vivo, male rats; details: 0.8 mg/kg s.c.
Experimental: Activation of LSt neurons is assessed using Fos immunoreactivity (IR) as a marker for neural activation and galanin or CCK-IR to identify LSt cells.
One hour following the end of the behavioral test, animals are anesthetized using sodium pentobarbital (200 mg/kg; i.p.) and perfused transcardially with 100 ml 0.9% saline, followed by 500 ml of 4% paraformaldehyde in 0.1 M sodium phosphate buffer (PB, pH 7.3-7.4). Brain and spinal cords are removed and post fixed for 1 hr at room temperature in the fixative. Coronal sections of thoracic (T), lumbar (L) and sacral (S) spinal cord (T10-S4) are cut at 35 μm on a Microm freezing microtome (Richard Allen, Kalamazoo, Mich.) and collected in twelve parallel series in cryorotectant solution (30% sucrose, 30% ethylene glycol in 0.1 M PB; Watson et al, 1985). In addition, coronal sections ( 35 µm) through thalamus are cut and stored in four parallel series.
All incubations are performed at room temperature with gentle agitation. Series of spinal cord sections ([…]) are rinsed extensively in phosphate buffered saline (PBS) between incubations. Free-floating sections are blocked with 1% H2O2 for 10 min at room temperature and then soaked for one hour in incubation solution (PBS containing 0.1% bovine serum albumin and 0.4% triton X-100). Next, sections are incubated overnight with a primary antiserum in incubation solution to recognize Fos (polyclonal anti-Fos antiserum raised in rabbit; 1:10,000; Santa Cruz, Santa Cruz, Calif.). […]
Analysis of labeling for galanin or CCK, Fos, and dual labeling for Fos and Galanin or CCK, is performed on a Leica light microscope at 4×-40× magnification. Neurons single labeled for galanin or CCK are determined by brown staining of cytoplasm with a nucleus devoid of blue-black (Fos) reaction product. […] Dual labeling is expressed as the percentage of galanin or CCK cells that expressed Fos. […]

male rats = assay: Copulatory behavior after 8-OH-DPAT; type: in vivo; details: 0.8 mg/kg s.c. 30 minutes before test; E1-DP rats, n=3
Experimental: All male and female rats are sexually experienced. […] The female rats are bilaterally ovariectomized two weeks prior to testing. Sexual receptivity is induced using a standard regimen of exogenous estrogen and progesterone, similar to that used for the stimulus females, described above. One week before testing females receive hormone treatment and mating experience with sexually experienced male partners. All testing of experimental groups is performed four hours after onset of the dark period, in a rectangular mating arena (60-45-50 cm), under dim red illumination. After completion of the mating tests, the sexual partners are removed, and experimental animals remained in the test cage for an additional 60 minutes until sacrifice.
The number of mounts, intromissions and total duration of the tests, are recorded for analysis of copulatory behavior. Numbers of mounts and intromissions, as well as duration of test are compared using a one-way ANOVA. Post hoc comparisons are made using the Scheffe test with an alpha of 0.05 required for rejection of the null hypothesis.
The purpose of this example is to investigate neural activation of lumbar spinal cord in male rats that display minimal sexual activity prior to ejaculation. Therefore, male rats are treated with 8-hydroxy-2-(di-n-propylamino) tetralin (8-OH-DPAT), which decreases the number of mounts and intromissions prior to ejaculation. […]

LSt neurons [2] = assay: Optical density of galanin-IR and SPR-IR around IML, CAN and SPN after LSt lesion; type: in vivo, rats
Excerpt: In these areas galanin-IR is present in fibers, while SPR-IR is located in neurons and fibers. […] In contrast, SPR-IR is not reduced following LSt lesions.
Following the final behavior test, animals are perfused intracardially with 4% paraformaldehyde and spinal cord tissue is collected for further processing. Spinal cords are cut into 35μm coronal sections and collected in 12 parallel series. Adjacent sections are stained for galanin, SPR or neuronal marker N using the general procedures as described in W. Truitt, M. Shipley, J. Veening, L. Coolen, J. Neurosci (2002). The primary antibodies and concentrations that are used include: Galanin—rabbit anti-galanin at 1:80,000 (PenLabs), Substance P receptor—rabbit anti-NK1 at 1:1,000 (Advanced Targeting Systems), and Neuronal marker N—mouse anti-NeuN at 1:10,000 (Chemicon).

[3] = Motor impairment after surgery; type: in vivo; details: number of SAP-injected control rats excluded; 10 excluded in total (3 SSP-SAP)
Experimental: (§1) Control animals are injected with non-conjugated equimolar concentrations of SAP. […] Rats with obvious motor impairment after surgery (n=10; 7 injected with SAP; 3 injected with SSP-SAP) are excluded from the study. Sexual behavior is first tested 10 days after lesion surgery, and during 5 subsequent twice-weekly tests. The trials are performed during the dark phase of the light cycle and consisted of the male rat being placed into the testing cage for 100 minutes with a receptive female. Stimulus females were ovariectomized and implanted subcutaneously (s.c.) with 5% 17-beta-estradiol benzoate silastic capsules. Progesterone (500 μg in 0.1 ml of sesame oil) was injected (s.c.) 4-6 hours prior to testing to induce sexual receptivity. Latencies and numbers of mounts, intromissions, and ejaculations are recorded, and vaginas of females are checked for seminal plugs multiple times during mating tests.

LSt neurons [4] = assay: Sexual behavior tests after lesion surgery; type: in vivo, male rats; details: 6 post-surgery tests, 100 minutes with receptive female
Experimental: as §1
The effects of LSt lesions on display of sexual behavior are assessed in the three groups described above. LSt lesions have a dramatic effect on sexual behavior. […] Furthermore, ablation of LSt neurons appears to selectively block ejaculatory behavior while not affecting other components of sexual behavior.

LSt neurons [5] = assay: Cell counts (galanin-IR, SPR-IR, NeuN-IR) in L3-L4 spinal cord after intraspinal SSP-SAP or SAP; type: in vivo; details: complete = galanin-IR LSt neurons less than 1/3 of untreated rats
Excerpt: First a membrane target located on the LSt neurons is identified. […] Identification of the SPR receptor on LSt cells enable the use of the targeted toxin SSP-SAP, which consists of the ribosome inhibitor protein toxin saporin (SAP) conjugated to a substance P analogue (SSP) with high affinity for SPR. SSP-SAP is infused into the L3-4 spinal cord at the location of the LSt cells in sexually experienced or sexually naive male rats. Male rats are allowed to mate with a receptive female during 6 pre-operative sessions (3 ejaculations or 100 minutes each).
All procedures are approved by the Animal Care and use Committee of the University of Cincinnati, Ohio and conformed to NIH guidelines involving vertebrate animals in research. Male rats are deeply anesthetized using ketamine/xylazine and laminectomy of L3 and L4 is performed. […]
Control animals are injected with non-conjugated equimolar concentrations of SAP. […] Latencies and numbers of mounts, intromissions, and ejaculations are recorded, and vaginas of females are checked for seminal plugs multiple times during mating tests. […]
Non-specific lesioning is determined by counting neurons visualized by neuronal marker N-IR. SPR containing cells are also counted in a standard area in the dorsal horn, as illustrated in FIG. 2A (area 2), to determine if lesioning is restricted to the area surrounding the central canal. […]

Compound	activation of Galanin neurons (Fos) (LSt neurons [1]; 8-OH-DPAT alone, no exposure to female (DPc group))	Galanin-IR neurons containing Fos-IR (LSt neurons [1]; E1-DP males, after one ejaculation)	mean number of galanin-IR neurons (LSt neurons [1]; two groups (one ejaculation / no female), order of values not stated)	average number of intromissions prior to ejaculation (male rats)	average number of mounts prior to ejaculation (male rats)	CAN-SPR optical density (LSt neurons [2]; Substance P receptor-IR around central autonomic nucleus, group in label)	IML-SPR optical density (LSt neurons [2]; Substance P receptor-IR around intermediolateral column, group in label)	SPN-SPR optical density (LSt neurons [2]; Substance P receptor-IR around sacral parasympathetic nucleus, group in label)	CAN-galanin optical density (LSt neurons [2]; galanin-IR around central autonomic nucleus, group in label)	IML-galanin optical density (LSt neurons [2]; galanin-IR around intermediolateral column, group (SAP, SSP-il, SSP-les) in label)	SPN-galanin optical density (LSt neurons [2]; galanin-IR around sacral parasympathetic nucleus, group in label)	rats with obvious motor impairment after surgery (excluded) [3]	display of ejaculatory behavior (LSt neurons [4])	lesions of LSt neurons (LSt neurons [5])
CCCN(CCC)C1CCc2cccc(O)c2C1 (centres unmarked) [8-OH-DPAT, 8-hydroxy-2-(di-n-propylamino) tetralin]	do not result in activation	85.55%±1.76	33.67±4.06 and 33.33±5.53	1.33±0.67	2.33±1.20									
saporin						380.26 ± 39.06 pixels (×1,000)	209.91 ± 30.92 pixels (×1,000)	392.68 ± 50.65 pixels (×1,000)	128.84 ± 25.81 pixels (×1,000)	58.82 ± 12.85 pixels (×1,000)	137.75 ± 14.99 pixels (×1,000)	7	continue to ejaculate regularly	no lesions
